Data published in US9884063B2, “Amido-substituted azole compounds” (Bayer Pharma Aktiengesellschaft, priority 2014, dated 2018).

Tests used:
[1] = test system: wildtype Wnt signaling cascade; experiment: HEK293 TOP Assay (Super TopFlash luciferase reporter, Wnt-3a stimulated); type: cell-based; conditions: Homo sapiens, HEK293, 16 h
In short: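 Compounds (50 μM down to 15 nM, 3.16-fold steps, in CAFTY buffer pH 7.4, 2 mM Ca2+, 0.01% BSA) tested in parallel on TOP and FOP HEK293 reporter lines to define selective wildtype Wnt inhibition. Pathway driven by recombinant human Wnt-3a applied at 2500–5 ng/ml in two-fold dilutions.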

TNKS1 = target: T1, TNKS1 (Homo sapiens, UniProt O95271); experiment: Modified TNKS1 Assay 2 (auto-parsylation, [3H]-NAD+ SPA); type: biochemical; conditions: 6 nM TNKS1, 96 well
T1 sequence (O95271 1-1327): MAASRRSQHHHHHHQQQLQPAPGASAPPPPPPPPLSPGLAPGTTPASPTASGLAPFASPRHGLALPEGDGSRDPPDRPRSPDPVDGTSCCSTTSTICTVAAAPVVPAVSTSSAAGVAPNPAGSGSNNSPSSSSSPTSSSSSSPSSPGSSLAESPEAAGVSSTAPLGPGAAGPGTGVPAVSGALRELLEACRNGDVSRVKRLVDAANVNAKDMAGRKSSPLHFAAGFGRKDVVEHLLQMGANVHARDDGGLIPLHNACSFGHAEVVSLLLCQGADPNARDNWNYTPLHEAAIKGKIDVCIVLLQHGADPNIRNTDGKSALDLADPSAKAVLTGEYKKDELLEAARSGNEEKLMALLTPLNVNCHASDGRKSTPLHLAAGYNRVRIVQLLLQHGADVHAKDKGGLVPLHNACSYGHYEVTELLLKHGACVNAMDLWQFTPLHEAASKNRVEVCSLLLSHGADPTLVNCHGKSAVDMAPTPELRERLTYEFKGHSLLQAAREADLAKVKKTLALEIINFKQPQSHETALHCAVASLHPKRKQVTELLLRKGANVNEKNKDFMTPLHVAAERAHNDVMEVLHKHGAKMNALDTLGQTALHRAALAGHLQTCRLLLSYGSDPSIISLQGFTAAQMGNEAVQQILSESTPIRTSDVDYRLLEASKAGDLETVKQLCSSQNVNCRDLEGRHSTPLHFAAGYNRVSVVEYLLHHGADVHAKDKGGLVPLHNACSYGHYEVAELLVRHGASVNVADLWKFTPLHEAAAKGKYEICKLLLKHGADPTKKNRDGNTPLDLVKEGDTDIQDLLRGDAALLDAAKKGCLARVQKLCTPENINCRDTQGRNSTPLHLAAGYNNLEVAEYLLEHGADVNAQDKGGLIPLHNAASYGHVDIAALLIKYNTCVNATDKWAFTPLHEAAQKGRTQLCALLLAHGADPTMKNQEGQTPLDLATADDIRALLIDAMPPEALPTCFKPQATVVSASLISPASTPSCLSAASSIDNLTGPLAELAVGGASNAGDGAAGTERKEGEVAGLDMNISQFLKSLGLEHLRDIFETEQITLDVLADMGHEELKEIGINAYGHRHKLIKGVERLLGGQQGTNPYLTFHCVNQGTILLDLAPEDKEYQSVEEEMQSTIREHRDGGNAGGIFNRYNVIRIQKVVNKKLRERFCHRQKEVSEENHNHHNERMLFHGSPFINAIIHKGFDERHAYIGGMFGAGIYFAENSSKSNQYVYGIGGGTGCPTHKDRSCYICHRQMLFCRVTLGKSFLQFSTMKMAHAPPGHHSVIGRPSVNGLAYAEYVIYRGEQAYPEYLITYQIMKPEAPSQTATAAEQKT
Method: The potency of selected compounds according to the invention was assessed applying an modified in vitro inhibition assay. Here, the TNKS1 catalyzed NAD^+-dependent ribosylation of the enzyme itself (auto-parsylation) was detected using [^3H]-NAD^+ as substrate and applying the scintillation proximity assay (SPA) method to detect tritium-labeled, parsylated TNKS1. The intensity of the readout signal is proportional to the incorporated [^3H]-NAD^+. Inhibition of TNKS1 leads to a decreased incorporation of [^3H]-NAD^+ and consequently to a lower readout signal intensity. The concentration of a test compound which inhibits the enzyme activity by 50% (corresponds to half of the normed readout signal intensity) is reported as IC50.
The assay was conducted in a 96 well MTP format with the identical TNKS1 enzyme sample and NAD^+ sample as in the histone ribosylation assay with the following modifications: TNKS1 enzyme sample was diluted with a modified assay buffer (50 mM MES pH 7.0, 1 mM DTT, 0.01% Triton X-100) to a final concentration of 6 nM TNKS1 and 10×NAD^+ solution was diluted with the modified assay buffer (s. above) to a final 0.445×NAD^+ solution doped with 100 Bq/ul [^3H]-NAD^+[Catalog #NET443H050UC, Perkin Elmer, Waltham, Mass., USA]. Substrate solution (10 ul) was incubated with different test compound concentrations (2.5 ul in 10% DMSO in modified assay buffer) or control (2.5 ul 10% DMSO in modified assay buffer only) and enzyme (10 ul) over night at room temperature. Incorporated tritium was measured after addition of 50 ul SPA beads (1 mg/ml) [Catalog #RPNQ0095 20 mg/ml, Perkin Elmer, Waltham, Mass., USA; diluted 1:10 with Dulbecco's phosphate buffered saline, PBS Catalog #D8537, Sigma-Aldrich, Steinheim, Germany] and detection of the photon emission with a beta count plate reader [Wallac MicroBeta®, Perkin Elmer, Waltham, Mass., USA].

[2] = HEK293 TOP reporter cell line, Wnt-3a at EC50, 16 hours incubation, compound dilution series 50 μM to 15 nM
[3] = HEK293 TOP reporter cells, Wnt3a at EC50, 16 hours, luciferase

Row | SMILES | IC50 [1, 2] | IC50 [1, 3] | IC50 (TNKS1)
1 | CNC(=O)c1nc[nH]c1C(=O)Nc1ccc(NC(=O)c2cccc(Cl)c2Cl)cc1 [Example 1, N^5-{4-[(2,3-dichlorobenzoyl)amino]phenyl}-N^4-methyl-1H-imidazole-4,5-dicarboxamide] | 1200 nM | 1100 nM | 
2 | CNC(=O)c1nc[nH]c1C(=O)Nc1ccc(NC(=O)c2ccc(N3CCCC3)cc2F)cc1 [Example 3, N^5-(4-{[2-fluoro-4-(pyrrolidin-1-yl)benzoyl]amino}phenyl)-N^4-methyl-1H-imidazole-4,5-dicarboxamide] | 9700 nM | 9700 nM | 
3 | CNC(=O)c1nc[nH]c1C(=O)Nc1ccc(NC(=O)c2ccc(N(C)C)cc2Cl)cc1 [Example 4, N^5-(4-{[2-chloro-4-(dimethylamino)benzoyl]amino}phenyl)-N^4-methyl-1H-imidazole-4,5-dicarboxamide] | 910 nM | 910 nM | 80 nM
4 | CNC(=O)c1nc[nH]c1C(=O)Nc1ccc(NC(=O)c2ccc(F)cc2Cl)c(C)c1 [Example 5, N^5-{4-[(2-chloro-4-fluorobenzoyl)amino]-3-methylphenyl}-N^4-methyl-1H-imidazole-4,5-dicarboxamide] | 240 nM | 240 nM | 320 nM
5 | CNC(=O)c1nc[nH]c1C(=O)Nc1ccc(NC(=O)c2ccncc2Cl)cc1 [Example 6, N^5-{4-[(3-chloroisonicotinoyl)amino]phenyl}-N^4-methyl-1H-imidazole-4,5-dicarboxamide] | 230 nM | 230 nM | 150 nM
6 | CCC(C)NC(=O)c1ncoc1C(=O)Nc1ccc(NC(=O)c2ccc(F)cc2Cl)cc1 (stereo not shown) [Example 7, N^4-sec-butyl-N^5-{4-[(2-chloro-4-fluorobenzoyl)amino]phenyl}-1,3-oxazole-4,5-dicarboxamide] | 5650 nM | 5650 nM | 
7 | CC(NC(=O)c1ncoc1C(=O)Nc1ccc(NC(=O)c2ccc(F)cc2Cl)cc1)c1ccccc1 (stereo not shown) [Example 8, N^5-{4-[(2-chloro-4-fluorobenzoyl)amino]phenyl}-N^4-(1-phenylethyl)-1,3-oxazole-4,5-dicarboxamide] | 4600 nM | 4600 nM | 
8 | CNC(=O)c1nc[nH]c1C(=O)Nc1ccc(NC(=O)c2ccc(Cl)cc2Cl)cc1 [Example 9, N^5-{4-[(2,4-dichlorobenzoyl)amino]phenyl}-N^4-methyl-1H-imidazole-4,5-dicarboxamide] | 140 nM | 150 nM | 150 nM
9 | CC(C)NC(=O)c1nc[nH]c1C(=O)Nc1ccc(NC(=O)c2ccc(F)cc2Cl)cc1 [Example 10, N^5-{4-[(2-chloro-4-fluorobenzoyl)amino]phenyl}-N^4-isopropyl-1H-imidazole-4,5-dicarboxamide] | 170 nM | 180 nM | 290 nM
10 | CNC(=O)c1ncoc1C(=O)Nc1ccc(NC(=O)c2ccc(F)cc2Cl)cc1 [Example 11, N^5-{4-[(2-chloro-4-fluorobenzoyl)amino]phenyl}-N^4-methyl-1,3-oxazole-4,5-dicarboxamide] | 730 nM | 730 nM | 150 nM
11 | CNC(=O)c1nc[nH]c1C(=O)Nc1ccc(NC(=O)c2ccc(F)cc2Cl)cc1 [Example 12, N^5-{4-[(2-chloro-4-fluorobenzoyl)amino]phenyl}-N^4-methyl-1H-imidazole-4,5-dicarboxamide] | 140 nM | 150 nM | 20 nM
12 | COC(=O)c1ncoc1C(=O)Nc1ccc(NC(=O)c2ccc(F)cc2Cl)cc1 [Example 14, Methyl 5-({4-[(2-chloro-4-fluorobenzoyl)amino]phenyl}carbamoyl)-1,3-oxazole-4-carboxylate] | 9350 nM | 11500 nM | 
13 | CC(C)NC(=O)c1ncoc1C(=O)Nc1ccc(NC(=O)c2ccc(F)cc2Cl)cc1 [Example 15, N^5-{4-[(2-chloro-4-fluorobenzoyl)amino]phenyl}-N^4-isopropyl-1,3-oxazole-4,5-dicarboxamide] | 1250 nM | 1250 nM | 
14 | CNC(=O)c1nc[nH]c1C(=O)Nc1ccc(NC(=O)c2ccc(F)cc2Cl)nc1 [Example 16, N^5-{6-[(2-chloro-4-fluorobenzoyl)amino]pyridin-3-yl}-N^4-methyl-1H-imidazole-4,5-dicarboxamide] | 180 nM | 180 nM | 30 nM
15 | CNC(=O)c1nc[nH]c1C(=O)Nc1ccc(NC(=O)c2c(-c3ccccc3)nn(C)c2Cl)cc1 [Example 17, N^5-(4-{[(5-chloro-1-methyl-3-phenyl-1H-pyrazol-4-yl)carbonyl]amino}phenyl)-N^4-methyl-1H-imidazole-4,5-dicarboxamide] | 3550 nM | 3550 nM | 
16 | O=C(Nc1ccc(NC(=O)c2[nH]cnc2C(=O)NCc2ccccc2)cc1)c1ccc(F)cc1Cl [Example 18, N^4-benzyl-N^5-{4-[(2-chloro-4-fluorobenzoyl)amino]phenyl}-1H-imidazole-4,5-dicarboxamide] | 410 nM | 340 nM | 
17 | CNC(=O)c1nc[nH]c1C(=O)Nc1ccc(NC(=O)c2ccccc2C)cc1 [Example 19, N^4-methyl-N^5-{4-[(2-methylbenzoyl)amino]phenyl}-1H-imidazole-4,5-dicarboxamide] | 1150 nM | 1250 nM | 1800 nM
18 | CNC(=O)c1nc[nH]c1C(=O)Nc1ccc(NC(=O)c2ccc(F)cc2)cc1 [Example 20, N^5-{4-[(4-fluorobenzoyl)amino]phenyl}-N^4-methyl-1H-imidazole-4,5-dicarboxamide] | 11200 nM | 3350 nM | > 10000 nM
19 | CNC(=O)c1nc[nH]c1C(=O)Nc1ccc(NC(=O)c2c(C)cc(F)cc2C)cc1 [Example 23, N^5-{4-[(4-fluoro-2,6-dimethylbenzoyl)amino]phenyl}-N^4-methyl-1H-imidazole-4,5-dicarboxamide] | 660 nM | 660 nM | 
20 | CN(C)C(=O)c1nc[nH]c1C(=O)Nc1ccc(NC(=O)c2ccc(F)cc2Cl)cc1 [Example 24, N^5-{4-[(2-chloro-4-fluorobenzoyl)amino]phenyl}-N^4,N^4-dimethyl-1H-imidazole-4,5-dicarboxamide] | 2130 nM | 2050 nM | 2600 nM
21 | CNC(=O)c1[nH]cnc1C(=O)Nc1ccc(NC(=O)c2cc(Cl)sc2Cl)cc1 [Example 213, N^4-(4-{[(2,5-dichloro-3-thienyl)carbonyl]amino}phenyl)-N^5-methyl-1H-imidazole-4,5-dicarboxamide] | 460 nM |  | 
